Measured values from PubChem BioAssay AID1508591.

Details: rat; liver microsomes; pH 7.4; 15.0 min; 1.0 µM

Compound: COc1ccc(CN2CCNc3cc(Nc4ccccc4)ncc3C2)cn1
- half-life: 10 min

Compound: Cc1csc2c1c(=O)n(O)c(=O)n2Cc1ccccc1
- half-life: > 30 min

Compound: CC1=C(C(=O)Nc2ccccc2Cl)C(c2ccccc2Br)N=C(Nc2nc3ccccc3o2)N1 (configuration not stated)
- half-life: > 30 min

Compound: COc1ccc(-c2csc(NC(=O)c3ccccc3NS(=O)(=O)c3ccc(C)cc3)n2)cc1
- half-life: 2.34 min

Compound: CC1=C(C(=O)NC2CCCC2)C(c2nn(C)cc2Cl)N=C(Nc2nc3ccccc3o2)N1 (configuration not stated)
- half-life: 2.7 min

Compound: COc1ccc(S(=O)(=O)N2CCCCCC2)cc1NC(=O)Cc1n[nH]c(=O)c2ccccc12
- half-life: 2.9 min

Compound: COc1ccc(C2c3c(oc4ccc(C)cc4c3=O)C(=O)N2CCCN2CCOCC2)cc1OC (configuration not stated)
- half-life: 7.59 min

Compound: O=C(C1CCN(c2nc(-c3ccc(Br)cc3)cs2)CC1)N1CCOCC1
- half-life: > 30 min

Compound: O=C(Nc1ccc(S(=O)(=O)Nc2nccs2)cc1)c1ccc(-c2ccccc2)cc1
- half-life: > 30 min

Compound: Cc1noc(C)c1-c1ccc(Nc2nc(-c3ccncc3)nc3ccccc23)cc1F
- half-life: 10 min

Compound: NC(=O)C1CCN(c2ncc(-c3ccc4c(c3)OC(F)(F)O4)s2)CC1
- half-life: 9.4 min

Compound: CC1=C[C@@H](CNCc2cccnc2)[C@H](C(C)C)C[C@H]1Cc1nnc(-c2ccc([N+](=O)[O-])cc2)o1
- half-life: 2.13 min

Compound: O=C1CCCC2=C1C(c1ccncc1Br)N=C(Nc1nc3ccccc3o1)N2 (configuration not stated)
- half-life: 6.5 min

Compound: Cc1cc(SCc2sc(-c3ccc(C(F)(F)F)cc3)nc2C)ccc1OCC(=O)O
- half-life: > 30 min

Compound: O=C(Cc1c[nH]c2ncc(-c3ccc(Cl)cc3)cc12)NCc1cccnc1
- half-life: 1.66 min

Compound: CNC(=O)c1cccc(-c2cnc(Nc3cccc(C(F)(F)F)c3)c3c2CCO3)c1
- half-life: > 30 min

Compound: CCOc1ccc(CCNC(=O)c2cc3sccc3n2C(C)C)cc1OCC
- half-life: 1.7 min

Compound: O=S(=O)(Nc1ccc(-c2cccnc2)c2cccnc12)c1cccc(C(F)(F)F)c1
- half-life: 1.25 min

Compound: CC1Oc2cc3c(-c4c(O)cc(O)c5c(O)c6c(cc45)OC(C)C(C)C6=O)c(O)cc(O)c3c(O)c2C(=O)C1C (configuration not stated)
- half-life: > 30 min

Compound: O=C(NCc1ccco1)c1nc2nc(-c3cccs3)cc(C(F)(F)F)n2n1
- half-life: > 30 min

Compound: COc1cc2c(c(OC)c1OC)-c1ccc(OC)c(=O)cc1[C@@H](NC(C)=O)CC2
- half-life: > 30 min

Compound: CCCNC(=O)Nc1ccc(Oc2ncnc3cc(OC)c(OC)cc23)cc1Cl
- half-life: > 30 min

Compound: CC(C)c1ccc(S(=O)(=O)c2cnc(SCC(=O)Nc3ccc4c(c3)OCCO4)[nH]c2=O)cc1
- half-life: 3.84 min

Compound: COc1ccc(CCn2c(N)cc(=O)[nH]c2=S)cc1OC
- half-life: > 30 min

Compound: O=C(Nc1ccc(C(=O)Nc2nccs2)cc1)c1ccc2ccccc2c1
- half-life: 23 min

Compound: CCN1CCc2c(sc(NC(=O)Nc3ccc(Cl)c(Cl)c3)c2C(N)=O)C1
- half-life: > 30 min

Compound: COc1ccccc1Nc1cnc2ccc(-c3ccc(OC)c(OC)c3)nn12
- half-life: 6.22 min

Compound: COc1cc(/C=C2\C(=O)Nc3ccccc32)ccc1O
- half-life: 12 min

Compound: CCOc1ccc(Nc2nc(C)c(NC(=O)c3ccc(C)cc3)c(Nc3ccc(OCC)cc3)n2)cc1
- half-life: 8.86 min

Compound: O=C(COc1ccccc1)NCC(c1cccs1)S(=O)(=O)c1ccc(Cl)cc1 (configuration not stated)
- half-life: 1.44 min

Compound: Cc1sc2c(c1C)C(c1ccc(Cl)cc1)=N[C@@H](CC(=O)OC(C)(C)C)c1nnc(C)n1-2
- half-life: 6.4 min

Compound: Cc1ccc(OCCn2c(CCNC(=O)c3ccccc3Br)nc3ccccc32)cc1
- half-life: 1.6 min

Compound: Oc1ccc(CNc2cccnc2)c2cccnc12
- half-life: 3.56 min

Compound: NC(=O)C1CCN(c2nnc(-c3ccc4c(c3)OCCCO4)s2)CC1
- half-life: > 30 min

Compound: Cc1c(-c2cccc3c(CCCOc4cccc5ccccc45)c(C(=O)O)n(Cc4cccnc4)c23)c(COc2ccc(N3CCN([S+](=O)([O-])N(C)C)CC3)cc2)nn1C
- half-life: 12 min

Compound: O=C(Nc1cc(Cc2ccccc2)ccn1)c1ccc(-c2cccc([N+](=O)[O-])c2)o1
- half-life: 4.8 min

Compound: Cc1ccc(/C=C/c2nc3ccccc3n2S(=O)(=O)c2ccc(Br)cc2)cc1
- half-life: 28.6 min

Compound: Cc1noc(C)c1-c1ccc(-c2cc(C(N)=O)c(NC(N)=O)s2)c(O[C@H]2CCNC2)c1
- half-life: > 30 min

Compound: Cc1cccc(C)c1Nc1c(-c2cccs2)nc2ncccn12
- half-life: 3.72 min

Compound: CN(C)c1ccc(CN2CCNc3cc(Nc4ccccc4)ncc3C2)cc1
- half-life: 2.01 min

Compound: O=C(NCCCc1ccccc1)C1CCN(c2nc(-c3ccc(Br)cc3)cs2)CC1
- half-life: 2.96 min

Compound: COc1ccc2oc(NC3=NC(c4[nH]ncc4Cl)C4=C(CCCC4=O)N3)nc2c1 (configuration not stated)
- half-life: 14.2 min

Compound: CC(=O)c1c(C)n(-c2ccccc2)c2ccc(O)cc12
- half-life: 17 min

Compound: O=C(O)Cn1c(C(=O)Nc2nc(-c3ccccc3Cl)cs2)cc2ccccc21
- half-life: > 30 min

Compound: COc1ccc(-c2nc3sc(CCNC(=O)C(C)(C)C)c(C)n3n2)cc1
- half-life: 9.33 min

Compound: C=Cc1ccc(C(=O)N2CCCC(CCC(=O)N3CCN(c4ccccn4)CC3)C2)cc1 (configuration not stated)
- half-life: 1.5 min

Compound: O=C(Nc1nc(-c2ccccc2)cs1)c1ccncc1NS(=O)(=O)c1cccs1
- half-life: 12 min

Compound: O=C1C(c2ccc(C(F)(F)F)cc2)=C(Nc2ccc(Cl)cc2)c2ccccc21
- half-life: 29.2 min

Compound: O=[N+]([O-])c1ccc(-c2nc(Nc3ccc(F)c(F)c3)c3ccccc3n2)cc1
- half-life: > 30 min

Compound: CCOc1ccc(CCNC(=O)c2cc3ccccc3n2Cc2cccc(C)n2)cc1OCC
- half-life: 1.6 min

Compound: COc1ccc2nc(C)cc(Nc3ccc(Cl)c(Cl)c3)c2c1
- half-life: 15.5 min

Compound: COc1cccc(-c2csc(NC(=O)c3ccncc3NS(=O)(=O)c3ccc(C)cc3)n2)c1
- half-life: 1.85 min

Compound: O=c1[nH]cnc2c1ccn2C1OC(CO)C(O)C1O (configuration not stated)
- half-life: > 30 min

Compound: CCc1cccc(NC(=O)c2cc(-c3ccc[nH]3)n[nH]2)c1
- half-life: 6.57 min

Compound: CN1CCN(C(c2ccccc2)c2ccc(Cl)cc2)CC1 (configuration not stated)
- half-life: 3 min

Compound: COc1ccc(NS(=O)(=O)c2ccc(C)cc2)cc1C(=O)Nc1nc(-c2ccccc2)cs1
- half-life: 12 min

Compound: CC[C@H]1CN2CCC3CC(OC)C(OC)CC3[C@@H]2C[C@@H]1C[C@H]1NCCC2=C1CC(OC)=C(O)C2 (some centres not stated)
- half-life: > 30 min

Compound: Cc1cc(NS(=O)(=O)c2ccc3c(c2)CCC(=O)N3)ccc1F
- half-life: 11.6 min

Compound: COc1cc2cc(CN3CCC(N(C)C)C3)c(-c3cccc(Cl)c3)nc2cc1OC (configuration not stated)
- half-life: 23.1 min

Compound: O=C(Nc1ccc(S(=O)(=O)Nc2nccs2)cc1)c1ccnc2ccccc12
- half-life: > 30 min

Compound: COc1ccc(-c2ccc3ncc(Nc4cccnc4OC)n3n2)cn1
- half-life: 10.8 min

Compound: Cc1ccc(-n2ncc3c(NCCCN(C)C)ncnc32)cc1Cl
- half-life: 8.9 min

Compound: CC1=C(C(=O)Nc2nccs2)C(c2ccccc2Br)N=C(Nc2nc3ccccc3o2)N1 (configuration not stated)
- half-life: 27 min

Compound: COc1ccc(CCNC(=O)Cn2c(=O)c3cccn3c3ccc(F)cc32)cc1OC
- half-life: 1.81 min

Compound: Cc1ccc(-c2cc(C(=O)Nc3ccncc3)c3ccccc3n2)cc1
- half-life: > 30 min

Compound: COc1ccc(-c2ccc3nc(-c4cc(F)ccc4F)oc3c2)c(OC)c1OC
- half-life: > 30 min

Compound: COc1ccc(C2c3[nH]c4ccc(OC)cc4c3CCN2C(=O)Nc2ccccc2)cc1 (configuration not stated)
- half-life: 25.7 min

Compound: Cc1ccc(-c2cc(C(=O)Nc3ccc(S(=O)(=O)N(C)C)cc3)c3ccccc3n2)cc1C
- half-life: 3.4 min

Compound: CCOc1ccc(CCNC(=O)c2ccnn2Cc2cccc(C)c2)cc1OCC
- half-life: 1.5 min

Compound: CC(C)(C)CN1CCNc2cc(Nc3ccccc3)ncc2C1
- half-life: 1.64 min

Compound: Cc1cc(-c2nnc3n2CCCCC3)c(C)n1-c1ccncc1
- half-life: 14 min

Compound: CCc1cc(Cl)c(OC)c(C(=O)NC[C@@H]2CCCN2CC)c1O
- half-life: 1.71 min

Compound: COc1cc(NC(=O)c2nc3ccccc3n(C)c2=O)cc(OC)c1OC
- half-life: > 30 min

Compound: COc1cccc(S(=O)(=O)Nc2cnccc2C(=O)Nc2nc(-c3ccccc3)cs2)c1
- half-life: 6.7 min

Compound: Nc1c(-c2ccncc2)cc[nH]c1=O
- half-life: > 30 min

Compound: CN1CCN(CCCN2c3ccccc3Sc3ccc(S(=O)(=O)N(C)C)cc32)CC1
- half-life: 1.95 min

Compound: CCC(CC)(NC(=O)C(C)C)C(=O)N[C@@H](CCCN=C(N)N)C(=O)NC1(C(=O)NC(c2ccc(F)cc2)c2ccc(F)cc2)CCCC1
- half-life: > 30 min

Compound: O=C(NCCc1ccccc1)C1CCN(c2nc(-c3ccc(Br)cc3)cs2)CC1
- half-life: 1.71 min

Compound: Cc1cccc(-n2cnc3cc(C(=O)N4CCCC(C)C4)ccc32)c1 (configuration not stated)
- half-life: 2.5 min

Compound: CCC(CC)c1cc([C@H]2CN3CC[C@H]2C[C@@H]3CNS(=O)(=O)c2cccs2)nc(-c2ccncc2)n1
- half-life: > 30 min

Compound: Cc1nn2c(c1-c1ccccc1Oc1ccccc1)N(Cc1ccccc1O)CCC2
- half-life: 1.76 min

Compound: Cn1nnnc1Sc1ncnc2scc(-c3ccc(F)cc3)c12
- half-life: 10.7 min

Compound: CCOc1ccc(C(=O)Nc2ccc(S(=O)(=O)N3CCCCC3c3cccnc3)cc2)cc1 (configuration not stated)
- half-life: 1.71 min

Compound: CC(=O)N[C@H]1CN(C2CCN(c3ccc(F)cc3C)CC2)C[C@@H]1C1CC1
- half-life: 2.3 min

Compound: Cc1ccc(-c2cc(C(=O)Nc3ccc(S(N)(=O)=O)cc3)c3ccccc3n2)cc1C
- half-life: > 30 min

Compound: Cc1cnc(-c2ccccc2C2CC2)nc1NCc1ccc(-c2cccnc2)cc1
- half-life: 6.2 min

Compound: COc1cccc(CNc2ccc(S(=O)(=O)Nc3nc(C)c(C)s3)cc2)c1O
- half-life: 12 min

Compound: C[C@@H](O)CNC(C)(C)CC(=O)N[C@@H]1CCc2ccccc2N(Cc2ccc(-c3ccccc3-c3nn[nH]n3)cc2)C1=O
- half-life: > 30 min

Compound: Cc1ccc(C(=O)N2CCc3c(nc4cc(-c5ccccc5)[nH]n4c3=O)C2)cn1
- half-life: > 30 min

Compound: c1ccc(-c2cc(Nc3nc(-c4ccncc4)nc4ccccc34)n[nH]2)cc1
- half-life: 11 min

Compound: Nc1nc(Nc2ccc(S(N)(=O)=O)cc2)nn1C(=O)c1c(F)cccc1F
- half-life: > 30 min

Compound: O=C(Nc1nc(-c2ccccc2)cs1)c1ccccc1-n1cnnn1
- half-life: > 30 min

Compound: CCOC(=O)C1CCN(C(=O)C2(NC(=O)Nc3ccccc3Cl)CCC2)CC1
- half-life: 1.7 min

Compound: Nc1nc2c(s1)C(c1ccc(Br)cc1)CC(=O)N2 (configuration not stated)
- half-life: 23.8 min

Compound: Cc1ccc2nc(NC3=NC(c4[nH]ncc4Cl)C4=C(CCCC4=O)N3)oc2c1 (configuration not stated)
- half-life: 15.8 min

Compound: CC[C@@]1(O)C(=O)OCc2c1cc1n(c2=O)Cc2c-1nc1cc(F)c(C)c3c1c2[C@@H](N)CC3
- half-life: > 30 min

Compound: CC(=O)c1c(C)[nH]c(C(=O)Nc2ccc(C)c(S(=O)(=O)Nc3ccc(Br)cc3)c2)c1C
- half-life: 19 min

Compound: O=C(Nc1ccc(Cl)cc1Cl)c1cnc2ccccc2n1
- half-life: 3 min

Compound: CCOC(=O)Nc1ccc(NCc2ccc(F)cc2)nc1N
- half-life: > 30 min

Compound: c1ccc(-c2nnc3n2NC(c2ccc4c(c2)OCO4)S3)cc1 (configuration not stated)
- half-life: > 30 min

Compound: Cc1sc(NC(=O)Cc2ccc3c(c2)OCO3)nc1-c1ccc2c(c1)CCN2C(=O)C1CCCCC1
- half-life: 8.6 min

Compound: Cc1cc(NC(=O)c2ccc(NC(=O)Cc3ccc(Cl)c(Cl)c3)cc2)no1
- half-life: 22 min
